Measurements taken from US10370343B2, “[6,6] Fused bicyclic HDAC8 inhibitors” (FORMA Therapeutics, Inc., priority 2015, dated 2019).

biological target: T1, Recombinant N-terminal GST tag full-length human HDAC8 (Homo sapiens, UniProt Q9BY41); test: HDAC8 probe binding assay, time resolved fluorescence (TRF) format; conditions: compounds grouped by IC50 range (Table 2)
T1 construct: Recombinant N-terminal GST tag full-length human HDAC8; purchased SignalChem H90-30G-1000; host or cells: baculovirus in Sf9 insect cells
T1 sequence (Q9BY41 1-377): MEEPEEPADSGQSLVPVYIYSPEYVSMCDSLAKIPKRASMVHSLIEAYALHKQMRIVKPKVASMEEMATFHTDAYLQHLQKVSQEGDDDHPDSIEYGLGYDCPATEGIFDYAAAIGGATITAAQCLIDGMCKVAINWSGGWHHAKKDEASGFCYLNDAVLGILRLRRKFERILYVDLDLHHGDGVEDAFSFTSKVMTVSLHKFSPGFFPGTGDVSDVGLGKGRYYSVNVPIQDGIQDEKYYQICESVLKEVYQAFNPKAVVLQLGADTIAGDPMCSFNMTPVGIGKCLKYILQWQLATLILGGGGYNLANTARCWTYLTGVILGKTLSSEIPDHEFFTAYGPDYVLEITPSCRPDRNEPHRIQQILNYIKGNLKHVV
Method: The HDAC8 probe binding assay was performed using a time resolved fluorescence (TRF) assay format. Recombinant N-terminal GST tag full-length human HDAC8 was expressed and purified from baculovirus in Sf9 insect cells (SignalChem, #[…]-1000). […] Plates were incubated for 16 hours at room temperature before time resolved fluorescence was read on the Envision (Excitation at 340 nm, and Emission at 485 nm and 535 nm, Perkin Elmer). Data from HDAC8 Assays were reported as percent inhibition (inh) compared with control wells based on the following equation: % inh=1-((FLU-AveLow)/(AveHigh-AveLow)) where FLU=measured time resolved fluorescence. AveLow=average time resolved fluorescence of no enzyme control (n=32). AveHigh=average time resolved fluorescence of DMSO control (n=32). IC50 values were determined by curve fitting of the standard 4 parameter logistic fitting algorithm included in the Activity Base software package: IDBS XE Designer Model205. Data is fitted using the Levenburg Marquardt algorithm. Ranges of IC50 values for compounds of the invention are disclosed in Table 2: Table 2. provides the compounds arranged according to […] determined in a time resolved fluorescence (TRF) assay. The compounds are separated into four groups: […]

| SMILES | IC50 [nM] |
| --- | --- |
| COCCOc1cccc(CN2C(=O)COc3ccc(C(=O)NO)cc32)c1 [Compound I-197, N-hydroxy-4-(3-(2-methoxyethoxy)benzyl)-3-oxo-3,4-dihydro-2H-benzo[b][1,4]oxazine-6-carboxamide] | ≤ 25 |
| O=C(NO)c1ccc2c(c1)N(Cc1nc(-c3ccccc3)co1)C(=O)CO2 [Compound I-202, N-hydroxy-3-oxo-4-((4-phenyloxazol-2-yl)methyl)-3,4-dihydro-2H-benzo[b][1,4]oxazine-6-carboxamide] | ≤ 25 |
| CC1(C)Oc2ccc(C(=O)NO)cc2N(Cc2cccc(C(F)(F)F)c2)C1=O [Compound I-300, N-hydroxy-2,2-dimethyl-3-oxo-4-(3-(trifluoromethyl)benzyl)-3,4-dihydro-2H-benzo[b][1,4]oxazine-6-carboxamide] | 25 to 100 |
| O=C(NO)c1ccc2c(c1)N(Cc1ccc(C(=O)N3CCCC3)cc1)C(=O)CO2 [Compound I-192, N-hydroxy-3-oxo-4-(4-(pyrrolidine-1-carbonyl)benzyl)-3,4-dihydro-2H-benzo[b][1,4]oxazine-6-carboxamide] | 25 to 100 |
| CC1(C)Oc2ccc(C(=O)NO)cc2N(Cc2cccc(Oc3ccc(Cl)cc3)c2)C1=O [Compound I-227, 4-(3-(4-chlorophenoxy)benzyl)-N-hydroxy-2,2-dimethyl-3-oxo-3,4-dihydro-2H-benzo[b][1,4]oxazine-6-carboxamide] | ≤ 25 |
| O=C(NO)c1ccc2c(c1)N(Cc1cc(-c3ccccc3)[nH]n1)C(=O)CO2 [Compound I-204, N-hydroxy-3-oxo-4-[(5-phenyl-1H-pyrazol-3-yl)methyl]-3,4-dihydro-2H-1,4-benzoxazine-6-carboxamide] | ≤ 25 |
| O=C(NO)c1ccc2c(c1)N(Cc1ccc(C(=O)N3CCOCC3)cc1)C(=O)CO2 [Compound I-190, N-hydroxy-4-(4-(morpholine-4-carbonyl)benzyl)-3-oxo-3,4-dihydro-2H-benzo[b][1,4]oxazine-6-carboxamide] | 25 to 100 |
| CC1(C)Oc2ccc(C(=O)NO)cc2N(Cc2nc3ccc(F)cc3o2)C1=O [Compound I-291, 4-((6-fluorobenzo[d]oxazol-2-yl)methyl)-N-hydroxy-2,2-dimethyl-3-oxo-3,4-dihydro-2H-benzo[b][1,4]oxazine-6-carboxamide] | ≤ 25 |
| COc1ccc(CN2C(=O)COc3c(F)cc(C(=O)NO)cc32)cc1 [Compound I-163, 8-fluoro-N-hydroxy-4-(4-methoxybenzyl)-3-oxo-3,4-dihydro-2H-benzo[b][1,4]oxazine-6-carboxamide] | 25 to 100 |
| O=C(NO)c1ccc2c(c1)N(Cc1coc(-c3ccccc3)n1)C(=O)CO2 [Compound I-179, N-hydroxy-3-oxo-4-((2-phenyloxazol-4-yl)methyl)-3,4-dihydro-2H-benzo[b][1,4]oxazine-6-carboxamide] | ≤ 25 |
| CC1(C)Oc2ccc(C(=O)NO)cc2N(Cc2nc3ccc(Cl)cc3o2)C1=O [Compound I-294, 4-((6-chlorobenzo[d]oxazol-2-yl)methyl)-N-hydroxy-2,2-dimethyl-3-oxo-3,4-dihydro-2H-benzo[b][1,4]oxazine-6-carboxamide] | ≤ 25 |
| N#Cc1c(CN2C(=O)COc3ccc(C(=O)NO)cc32)cn2ccccc12 [Compound I-201, 4-((1-cyanoindolizin-2-yl)methyl)-N-hydroxy-3-oxo-3,4-dihydro-2H-benzo[b][1,4]oxazine-6-carboxamide] | ≤ 25 |
| COc1ccc(CN2CC(C(=O)N3CCOCC3)Oc3ccc(C(=O)NO)cc32)cc1 (stereo not shown) [Compound I-171, N-hydroxy-4-(4-methoxybenzyl)-2-(morpholine-4-carbonyl)-3,4-dihydro-2H-benzo[b][1,4]oxazine-6-carboxamide] | 25 to 100 |
| O=C(NO)c1ccc2c(c1)N(Cc1nc3ccc(C(F)(F)F)cc3o1)C(=O)CO2 [Compound I-233, N-hydroxy-3-oxo-4-((6-(trifluoromethyl)benzo[d]oxazol-2-yl)methyl)-3,4-dihydro-2H-benzo[b][1,4]oxazine-6-carboxamide] | ≤ 25 |
| COCCOc1ccc(CN2C(=O)COc3ccc(C(=O)NO)cc32)cc1 [Compound I-196, N-hydroxy-4-(4-(2-methoxyethoxy)benzyl)-3-oxo-3,4-dihydro-2H-benzo[b][1,4]oxazine-6-carboxamide] | ≤ 25 |
| CC1(C)Oc2ccc(C(=O)NO)cc2N(CCCc2ccccc2)C1=O [Compound I-298, N-hydroxy-2,2-dimethyl-3-oxo-4-(3-phenylpropyl)-3,4-dihydro-2H-benzo[b][1,4]oxazine-6-carboxamide] | 25 to 100 |
| CC1(C)Oc2ccc(C(=O)NO)cc2N(Cc2cccc(Oc3ccccc3)c2)C1=O [Compound I-225, N-hydroxy-2,2-dimethyl-3-oxo-4-(3-phenoxybenzyl)-3,4-dihydro-2H-benzo[b][1,4]oxazine-6-carboxamide] | 25 to 100 |
| COc1ccc(CN2C(=O)OCc3ccc(C(=O)NO)cc32)cc1 [Compound I-165, N-hydroxy-1-(4-methoxybenzyl)-2-oxo-2,4-dihydro-1H-benzo[d][1,3]oxazine-7-carboxamide] | ≤ 25 |

Results, then the compound that gave them:

| IC50 [nM] | SMILES |
| --- | --- |
| ≤ 25 | O=C(NO)c1ccc2c(c1)N(Cc1ccc(F)c(Cl)c1)C(=O)CO2 [Compound I-351, 4-(3-chloro-4-fluorobenzyl)-N-hydroxy-3-oxo-3,4-dihydro-2H-benzo[b][1,4]oxazine-6-carboxamide] |
| > 1000 | CC1(C)Oc2ccc(C(=O)NO)cc2N(Cc2nc(-c3ccccc3)sc2Cc2ccccc2)C1=O [Compound I-309, 4-((5-benzyl-2-phenylthiazol-4-yl)methyl)-N-hydroxy-2,2-dimethyl-3-oxo-3,4-dihydro-2H-benzo[b][1,4]oxazine-6-carboxamide] |
| 25 to 100 | CC1(C)Oc2ccc(C(=O)NO)cc2N(Cc2ccc(C(F)(F)F)cc2)C1=O [Compound I-305, N-hydroxy-2,2-dimethyl-3-oxo-4-(4-(trifluoromethyl)benzyl)-3,4-dihydro-2H-benzo[b][1,4]oxazine-6-carboxamide] |
| 25 to 100 | CC1(C)Oc2ccc(C(=O)NO)cc2N(Cc2ccc(OC(F)(F)F)cc2F)C1=O [Compound I-322, 4-(2-fluoro-4-(trifluoromethoxy)benzyl)-N-hydroxy-2,2-dimethyl-3-oxo-3,4-dihydro-2H-benzo[b][1,4]oxazine-6-carboxamide] |
| ≤ 25 | O=C(NO)c1ccc2c(c1)N(Cc1ccn3ccnc3c1)C(=O)CO2 [Compound I-338, N-hydroxy-4-(imidazo[1,2-a]pyridin-7-ylmethyl)-3-oxo-3,4-dihydro-2H-benzo[b][1,4]oxazine-6-carboxamide] |
| 25 to 100 | Cc1cccc2nc(CN3C(=O)COc4ccc(C(=O)NO)cc43)cc(=O)n12 [Compound I-327, N-hydroxy-4-((6-methyl-4-oxo-4H-pyrido[1,2-a]pyrimidin-2-yl)methyl)-3-oxo-3,4-dihydro-2H-benzo[b][1,4]oxazine-6-carboxamide] |
| ≤ 25 | O=C(NO)c1ccc2c(c1)N(Cc1ccc3ccncc3c1)C(=O)CO2 [Compound I-337, N-hydroxy-4-(isoquinolin-7-ylmethyl)-3-oxo-3,4-dihydro-2H-benzo[b][1,4]oxazine-6-carboxamide] |
| ≤ 25 | CC1(C)Oc2ccc(C(=O)NO)cc2N(C/C=C/c2ccccc2)C1=O [Compound I-318, 4-cinnamyl-N-hydroxy-2,2-dimethyl-3-oxo-3,4-dihydro-2H-benzo[b][1,4]oxazine-6-carboxamide] |
| ≤ 25 | O=C(NO)c1ccc2c(c1)N(Cc1ccc3cnccc3c1)C(=O)CO2 [Compound I-336, N-hydroxy-4-(isoquinolin-6-ylmethyl)-3-oxo-3,4-dihydro-2H-benzo[b][1,4]oxazine-6-carboxamide] |
| 25 to 100 | CC1(C)Oc2ccc(C(=O)NO)cc2N(Cc2ccc(-c3ccccc3)cc2)C1=O [Compound I-306, 4-([1,1′-biphenyl]-4-ylmethyl)-N-hydroxy-2,2-dimethyl-3-oxo-3,4-dihydro-2H-benzo[b][1,4]oxazine-6-carboxamide] |
| 25 to 100 | CN(C)C(=O)c1ccc(CN2C(=O)COc3ccc(C(=O)NO)cc32)cc1 [Compound I-360, 4-(4-(dimethylcarbamoyl)benzyl)-N-hydroxy-3-oxo-3,4-dihydro-2H-benzo[b][1,4]oxazine-6-carboxamide] |
| 25 to 100 | O=C(NO)c1ccc2c(c1)N(Cc1cccc(C(F)(F)F)c1Cl)C(=O)CO2 [Compound I-354, 4-(2-chloro-3-(trifluoromethyl)benzyl)-N-hydroxy-3-oxo-3,4-dihydro-2H-benzo[b][1,4]oxazine-6-carboxamide] |
| ≤ 25 | O=C(NO)c1ccc2c(c1)N(Cc1ccn3nccc3c1)C(=O)CO2 [Compound I-339, N-hydroxy-3-oxo-4-(pyrazolo[1,5-a]pyridin-5-ylmethyl)-3,4-dihydro-2H-benzo[b][1,4]oxazine-6-carboxamide] |
